{
  "source": "patent US6528517B1",
  "about": "“Synthesis of quinobenzoxazine analogues with topoisomerase II and quadruplex interactions for use as antineoplastic agents” (Board of Regents, The University of Texas System, priority 1998, dated 2003)",
  "key": {"[1]": {"target": "T1, Drosophila topo II (Drosophila melanogaster, UniProt P15348)", "T1 construct": "purchased Amersham", "T1 sequence (P15348 1-1447)": "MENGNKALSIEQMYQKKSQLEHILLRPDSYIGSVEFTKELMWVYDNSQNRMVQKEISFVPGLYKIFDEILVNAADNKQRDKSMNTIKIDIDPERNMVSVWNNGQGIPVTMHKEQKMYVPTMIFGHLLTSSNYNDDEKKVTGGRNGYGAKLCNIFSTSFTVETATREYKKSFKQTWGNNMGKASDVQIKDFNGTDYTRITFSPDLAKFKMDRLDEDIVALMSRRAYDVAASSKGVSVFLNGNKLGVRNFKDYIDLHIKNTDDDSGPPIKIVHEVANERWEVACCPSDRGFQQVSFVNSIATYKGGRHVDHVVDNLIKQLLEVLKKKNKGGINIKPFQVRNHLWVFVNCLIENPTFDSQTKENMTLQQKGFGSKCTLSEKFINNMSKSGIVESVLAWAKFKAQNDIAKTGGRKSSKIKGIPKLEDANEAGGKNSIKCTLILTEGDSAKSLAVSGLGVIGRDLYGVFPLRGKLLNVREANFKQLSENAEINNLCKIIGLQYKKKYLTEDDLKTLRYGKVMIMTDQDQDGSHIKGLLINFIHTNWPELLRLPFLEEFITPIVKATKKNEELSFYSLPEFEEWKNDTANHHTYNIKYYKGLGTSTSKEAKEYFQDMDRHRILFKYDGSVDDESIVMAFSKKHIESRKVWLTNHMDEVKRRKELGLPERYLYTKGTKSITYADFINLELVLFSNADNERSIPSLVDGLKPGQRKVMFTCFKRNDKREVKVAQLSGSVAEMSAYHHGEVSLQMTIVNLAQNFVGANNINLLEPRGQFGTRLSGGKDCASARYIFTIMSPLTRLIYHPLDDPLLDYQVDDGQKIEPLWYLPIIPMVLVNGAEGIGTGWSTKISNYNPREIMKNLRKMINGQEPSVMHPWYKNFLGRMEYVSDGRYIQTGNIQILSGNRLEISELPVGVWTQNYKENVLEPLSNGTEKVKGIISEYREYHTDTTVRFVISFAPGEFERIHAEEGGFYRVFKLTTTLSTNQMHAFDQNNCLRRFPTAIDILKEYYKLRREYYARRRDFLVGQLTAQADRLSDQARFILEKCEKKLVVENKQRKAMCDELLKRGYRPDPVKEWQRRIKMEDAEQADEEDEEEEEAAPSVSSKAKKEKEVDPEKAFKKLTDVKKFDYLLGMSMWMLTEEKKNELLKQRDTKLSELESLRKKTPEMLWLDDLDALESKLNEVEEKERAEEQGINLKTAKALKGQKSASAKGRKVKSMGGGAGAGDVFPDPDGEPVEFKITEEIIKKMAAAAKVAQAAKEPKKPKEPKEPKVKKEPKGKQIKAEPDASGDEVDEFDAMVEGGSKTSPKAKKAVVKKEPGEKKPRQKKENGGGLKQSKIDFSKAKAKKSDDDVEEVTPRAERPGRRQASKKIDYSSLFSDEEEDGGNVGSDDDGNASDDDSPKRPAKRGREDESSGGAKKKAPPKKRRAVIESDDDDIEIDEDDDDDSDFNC", "experiment": "Topo II cleavage reaction", "assay_type": "biochemical", "details": "up to 10 μM", "experimental": "FIGS. 5, A-B. Effect of A-62176 (I in FIG. 2) on DNA cleavage by topo II in the presence of ATP. (A) Autoradiogram of a 12% denaturing polyacrylamide gel showing topo II-mediated cleavage pattern in the presence of A-62176. The cleavage reaction was done in a reaction buffer containing 10 mM imidazole-HCl (pH 6.0), 10 mM MgCl2, 50 mM KCl, and 1 mM ATP, as described in the Materials and Methods section. Lanes 1-7 contain 20 units of Drosophila topo II. Lane 1 contains no drug. Lanes 2-7 contain 0.2, 0.5, 1, 2, 5 and 10 μM of A-62176, respectively. (B) Topo II cleavage products indicated by arrows in (A) were quantitated using a PhosphorImager and analyzed using ImageQuanNT software (Molecular Dynamics). The intensity of the topo II-mediated cleavage was determined from the volume of the bands [indicated by arrows in (A)] normalized by the total radioactivity in each lane.\n5′^32P-labeled DNA was incubated with Drosophila topo II in 20 μl of a reaction buffer [10 mM imidazole-HCl (pH 6.0), 10 mM MgCl2, 50 mM KCl, and 1 mM ATP] at 30° C. for 10 min in the presence of various amounts of A-62176. Reactions were terminated by adding SDS to 1%, and topo II was removed by proteinase K digestion (100 μg/ml) at 42° C. for 1 hr followed by phenol/chloroform extraction and ethanol precipitation."}, "[2]": {"target": "T2, topo II-DNA complex (Drosophila melanogaster, UniProt P15348)", "T2 construct": "purchased Amersham", "T2 sequence (P15348 1-1447)": "T1 sequence (P15348 1-1447)", "experiment": "Psorospermin competition study (DNA strand breakage assay)", "assay_type": "biochemical", "experimental": "5′^32P-labeled DNA was incubated with Drosophila topo II in the same buffer as the one in the topo II cleavage reaction in the presence of various amounts of either A-62176, Norfloxacin, or both. The incubation reactions took place at 30° C. for 10 min before 10 μM (final concentration) of psorospermin was added to the mixtures. The reactions were continued for an additional 5 min and then terminated by adding 5 μg of calf thymus DNA, followed by heating at 95° C. for 15 min. In the presence of piperidine, this procedure induces strand breakage at the drug modification sites (Hansen et al., 1996). The samples were subjected to phenol/chloroform extraction followed by ethanol precipitation.\nIn the presence of topo II, the reactivity of psorospermin is enhanced more than 40-fold with the guanine at the +4′ position at site B in FIG. 7 (Kwok et al., 1998a and 1998b). A DNA strand breakage assay was used to locate the position of alkylation of DNA by the epoxide of psorospermin upon intercalation to the base pairs between the +1 and +2 positions at site B within the topo II-DNA complex (Kwok et al., 1998a). Psorospermin has subsequently been used to probe the binding sites for m-AMSA (Kwok et al., 1998a). In the present study, this same assay was performed to determine the binding site of A-62176 on DNA in the presence of topo II."}},
  "data": [
    {"smiles": "N[C@H]1CCN(c2c(F)cc3c(=O)c(C(=O)O)cn4c3c2Oc2ccccc2-4)C1", "note": "[Compound A-62176, 1-(3-aminopyrrolidin-1-yl)-2-fluoro-4-oxo-4H-quino[2,3,4-i,j][1,4]benzoxazine-5-carboxylic acid, reference compound]", "values": [
      {"measurement": "topo II-mediated cleavage", "setting": "[1]", "value": "enhance"},
      {"measurement": "psorospermin alkylation at site B (competition)", "setting": "[2]; 0.5-10 μM drug, psorospermin, topo II present", "value": "decreased"},
      {"measurement": "inhibition of psorospermin alkylation, in combination with Norfloxacin", "setting": "[2]; after subtracting the enhancement by Norfloxacin alone", "value": "additive effect"}
    ]}
  ]
}
